From ChEMBL document CHEMBL1201862, “PubChem BioAssay data set” (2004) come the findings set out here.

Experiment [1] concerns the target Acyl-homoserine lactone acylase PvdQ (Pseudomonas aeruginosa (strain LESB58), UniProt Q9I194). The experiment is described as follows: PvdQ acylase enzyme activity blockers – biochemical, fluorescence, plate reader and imaging, cherry-picks, dose response (AID 493231).
For experiment [2], the target named is Bcl-2-like protein 10 (Homo sapiens, UniProt Q9HD36). The experiment in a line: Bcl-B/TR3 peptide binding disruption – biochemical, fluorescence polarization, FITC-TR3 peptide, selectivity assay for Bfl-1 inhibitor project, primary screen (AID 748). For orientation: Fluorescence polarisation rises when a labelled molecule tumbles more slowly, as on binding a larger partner.
Chain of Bcl-2-like protein 10 (Q9HD36 whole entry): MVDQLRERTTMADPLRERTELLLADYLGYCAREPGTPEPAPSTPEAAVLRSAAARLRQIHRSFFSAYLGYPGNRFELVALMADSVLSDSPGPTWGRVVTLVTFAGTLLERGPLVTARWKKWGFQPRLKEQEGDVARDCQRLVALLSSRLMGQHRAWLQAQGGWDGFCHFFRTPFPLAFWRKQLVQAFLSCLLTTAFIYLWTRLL

The target in experiment [3] is Melanin-concentrating hormone receptor 1 (Homo sapiens, UniProt Q99705). The experiment in a line: Late-stage fluorescence-based counterscreen for antagonists of the G-protein coupled receptor 7 (GPR7): cell-based dose response assay to identify antagonists of the melanin-concentrating hormone receptor 1 (MCHR1). [Related pubchem assays (depositor defined):AID1861, AID1880, AID1952, AID2148, AID2251, AID2257, AID485339]. The class given is functional. (In general: Counterscreens check selectivity or assay interference.);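 also: stimulated with 30 nM MCH peptide agonist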
Chain of Melanin-concentrating hormone receptor 1 (Q99705 whole entry): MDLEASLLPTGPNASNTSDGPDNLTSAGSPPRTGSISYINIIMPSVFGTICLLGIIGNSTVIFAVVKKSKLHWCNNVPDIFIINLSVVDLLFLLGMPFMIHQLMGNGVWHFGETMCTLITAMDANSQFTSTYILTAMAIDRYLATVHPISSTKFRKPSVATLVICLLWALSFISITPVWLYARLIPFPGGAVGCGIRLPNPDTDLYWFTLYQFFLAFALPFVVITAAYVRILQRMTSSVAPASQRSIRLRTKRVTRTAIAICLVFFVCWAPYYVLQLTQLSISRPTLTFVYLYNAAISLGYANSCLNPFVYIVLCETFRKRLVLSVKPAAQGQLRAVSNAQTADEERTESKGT

The target of experiment [4] is CAAX prenyl protease 2 (Saccharomyces cerevisiae S288c, UniProt Q03530). It counts as biochemical.
Chain of CAAX prenyl protease 2 (Q03530 whole entry): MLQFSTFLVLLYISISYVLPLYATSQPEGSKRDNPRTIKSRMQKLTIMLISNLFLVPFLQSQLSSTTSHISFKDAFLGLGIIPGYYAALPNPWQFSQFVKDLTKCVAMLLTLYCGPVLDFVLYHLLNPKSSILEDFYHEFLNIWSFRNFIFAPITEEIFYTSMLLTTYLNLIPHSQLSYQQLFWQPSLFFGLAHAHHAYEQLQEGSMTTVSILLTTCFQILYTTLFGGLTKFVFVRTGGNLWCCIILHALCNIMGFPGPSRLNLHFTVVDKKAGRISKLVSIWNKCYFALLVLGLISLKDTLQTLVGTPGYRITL
Experiment [5] deals with Mu-type opioid receptor (Homo sapiens, UniProt P35372). The experiment in a line: SAR Analysis of Antagonists of the MOR Receptor using an Image-Based Assay - Set 3. [Related pubchem assays (depositor defined):AID1777, AID1785, AID1786, AID1966, AID2133, AID2136, AID2284, AID2285, AID2420]. It counts as functional.
Chain of Mu-type opioid receptor (P35372 whole entry): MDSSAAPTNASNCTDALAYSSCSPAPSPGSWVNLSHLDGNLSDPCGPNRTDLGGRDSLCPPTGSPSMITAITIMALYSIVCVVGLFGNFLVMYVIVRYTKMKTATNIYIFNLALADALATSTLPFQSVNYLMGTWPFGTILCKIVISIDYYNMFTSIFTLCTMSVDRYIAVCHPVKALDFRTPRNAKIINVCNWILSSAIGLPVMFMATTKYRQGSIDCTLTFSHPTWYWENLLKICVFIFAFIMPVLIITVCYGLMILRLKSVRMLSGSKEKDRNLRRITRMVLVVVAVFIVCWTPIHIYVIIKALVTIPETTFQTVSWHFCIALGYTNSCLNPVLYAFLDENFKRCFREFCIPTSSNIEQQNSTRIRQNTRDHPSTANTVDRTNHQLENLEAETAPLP
Experiment [6] deals with Delta-type opioid receptor (Homo sapiens, UniProt P41143). The experiment is described as follows: SAR Analysis of Antagonists of the DOR Receptor using an Image-Based Assay - Set 3. [Related pubchem assays (depositor defined):AID1777, AID1785]. The class given is functional.
Chain of Delta-type opioid receptor (P41143 whole entry): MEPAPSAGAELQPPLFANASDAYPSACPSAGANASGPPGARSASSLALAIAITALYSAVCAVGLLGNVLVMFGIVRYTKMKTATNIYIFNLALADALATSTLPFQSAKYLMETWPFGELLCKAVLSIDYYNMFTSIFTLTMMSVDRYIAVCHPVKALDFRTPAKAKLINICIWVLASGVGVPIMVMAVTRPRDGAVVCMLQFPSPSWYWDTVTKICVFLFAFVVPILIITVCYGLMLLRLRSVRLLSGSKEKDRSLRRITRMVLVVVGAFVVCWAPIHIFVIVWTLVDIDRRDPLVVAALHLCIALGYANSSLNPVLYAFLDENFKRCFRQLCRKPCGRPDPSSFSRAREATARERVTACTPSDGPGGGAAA
Experiment [7] addresses T1, Kappa-type opioid receptor (Homo sapiens, UniProt P41145). The experiment in a line: SAR analysis of small molecule antagonists of the kappa opioid receptor via a luminescent beta-arrestin assay - Set 3. [Related pubchem assays (depositor defined):AID1777, AID1778, AID1785, AID1786, AID1966, AID2133, AID2136, AID2285, AID2495]. It counts as functional.
Experiment [8] addresses T1, Kappa-type opioid receptor. The experiment is described as follows: SAR analysis of Antagonists of the Kappa Opioid Receptor (KOR) using an Image-Based Assay - Set 3. [Related pubchem assays (depositor defined):AID1777, AID1785]. The class given is functional.
Experiment [9] has as its target Eukaryotic translation initiation factor 4H (Homo sapiens, UniProt Q15056). The experiment is described as follows: inhibitors of translation initiation factor eIF4H – SAR follow-up (AID 435011). The class given is functional.
Experiment [10] concerns the target Polyadenylate-binding protein 1 (Homo sapiens, UniProt P11940). The experiment is described as follows: PABP inhibition in translation initiation, SAR follow-up (AID 435018). It counts as functional.
In experiment [11] the target is Large T antigen (Simian virus 40, UniProt P03070). It counts as functional, Betapolyomavirus macacae.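 Also: Confirmatory-stage PubChem screen for compounds that inhibit SV40 T antigen.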
Chain of Large T antigen (P03070 whole entry): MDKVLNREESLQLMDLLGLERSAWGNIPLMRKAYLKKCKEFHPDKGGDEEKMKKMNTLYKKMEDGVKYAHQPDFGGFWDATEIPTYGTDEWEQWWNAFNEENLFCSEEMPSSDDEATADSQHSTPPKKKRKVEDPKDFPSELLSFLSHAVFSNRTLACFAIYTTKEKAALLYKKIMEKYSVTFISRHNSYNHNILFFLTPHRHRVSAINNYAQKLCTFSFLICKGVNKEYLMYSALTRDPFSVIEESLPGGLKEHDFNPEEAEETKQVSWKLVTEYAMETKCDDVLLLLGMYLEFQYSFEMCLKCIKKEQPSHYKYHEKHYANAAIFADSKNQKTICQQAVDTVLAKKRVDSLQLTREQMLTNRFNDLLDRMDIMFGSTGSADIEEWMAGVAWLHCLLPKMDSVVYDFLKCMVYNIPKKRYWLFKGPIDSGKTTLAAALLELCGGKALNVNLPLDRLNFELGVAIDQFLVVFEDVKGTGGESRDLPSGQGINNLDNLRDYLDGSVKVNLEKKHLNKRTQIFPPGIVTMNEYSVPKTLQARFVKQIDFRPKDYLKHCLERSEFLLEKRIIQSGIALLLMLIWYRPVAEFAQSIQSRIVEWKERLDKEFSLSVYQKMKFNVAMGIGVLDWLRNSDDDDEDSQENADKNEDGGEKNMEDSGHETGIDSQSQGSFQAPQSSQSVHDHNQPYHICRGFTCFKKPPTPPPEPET
Experiment [12] has as its target T2, Caspase-3 (Homo sapiens, UniProt P42574).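 Also: Dose-response selectivity test against caspase-3 for candidate inhibitors of sentrin-specific proteases (SENPs).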
T2 sequence (P42574 whole entry): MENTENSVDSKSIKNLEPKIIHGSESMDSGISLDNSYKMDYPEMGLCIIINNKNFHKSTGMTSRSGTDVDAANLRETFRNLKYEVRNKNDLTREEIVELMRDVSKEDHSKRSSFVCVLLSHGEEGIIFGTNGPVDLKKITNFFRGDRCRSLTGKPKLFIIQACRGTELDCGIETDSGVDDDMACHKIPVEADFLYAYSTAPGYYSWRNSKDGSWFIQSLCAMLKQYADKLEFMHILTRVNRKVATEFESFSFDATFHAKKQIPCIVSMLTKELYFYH
It counts as functional.

Experiment [13] concerns the target T3, Sentrin-specific protease 7 (Homo sapiens, UniProt Q9BQF6).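 Also: Luminescence-based dose-response confirmation of ultra-high-throughput screening hits, measuring inhibition of SENP7.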
T3 sequence (Q9BQF6 whole entry): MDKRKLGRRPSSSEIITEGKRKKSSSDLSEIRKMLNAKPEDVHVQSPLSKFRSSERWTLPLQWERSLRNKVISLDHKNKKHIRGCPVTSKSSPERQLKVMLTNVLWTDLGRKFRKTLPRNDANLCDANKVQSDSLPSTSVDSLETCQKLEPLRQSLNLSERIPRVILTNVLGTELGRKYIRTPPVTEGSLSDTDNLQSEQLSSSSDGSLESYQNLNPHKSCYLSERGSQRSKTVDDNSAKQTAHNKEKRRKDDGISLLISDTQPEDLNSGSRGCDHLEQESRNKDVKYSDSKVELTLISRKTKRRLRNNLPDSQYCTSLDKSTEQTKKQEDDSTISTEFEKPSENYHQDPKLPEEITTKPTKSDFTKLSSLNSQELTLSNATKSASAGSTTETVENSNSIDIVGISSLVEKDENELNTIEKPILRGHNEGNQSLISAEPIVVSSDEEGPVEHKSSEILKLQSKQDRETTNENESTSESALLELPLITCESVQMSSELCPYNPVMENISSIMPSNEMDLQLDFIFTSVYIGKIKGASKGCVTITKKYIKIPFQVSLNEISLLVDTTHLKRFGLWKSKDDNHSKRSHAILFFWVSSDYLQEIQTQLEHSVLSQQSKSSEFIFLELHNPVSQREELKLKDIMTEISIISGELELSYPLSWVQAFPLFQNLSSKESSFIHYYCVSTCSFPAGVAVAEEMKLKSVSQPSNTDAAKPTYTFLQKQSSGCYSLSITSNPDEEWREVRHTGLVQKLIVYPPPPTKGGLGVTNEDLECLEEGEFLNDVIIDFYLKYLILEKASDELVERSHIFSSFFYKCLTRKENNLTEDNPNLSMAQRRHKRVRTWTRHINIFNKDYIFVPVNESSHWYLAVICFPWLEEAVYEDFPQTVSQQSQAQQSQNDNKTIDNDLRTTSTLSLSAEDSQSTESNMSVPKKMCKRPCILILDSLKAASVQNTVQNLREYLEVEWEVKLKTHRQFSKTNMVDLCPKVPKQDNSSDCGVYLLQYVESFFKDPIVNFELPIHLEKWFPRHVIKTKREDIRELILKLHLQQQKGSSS
It counts as functional.

In experiment [14] the target is T4, Sentrin-specific protease 6 (Homo sapiens, UniProt Q9GZR1).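 Also: Luminescence-based dose-response confirmatory assay of SENP6 inhibition, following up an ultra-high-throughput screen.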
T4 sequence (Q9GZR1 whole entry): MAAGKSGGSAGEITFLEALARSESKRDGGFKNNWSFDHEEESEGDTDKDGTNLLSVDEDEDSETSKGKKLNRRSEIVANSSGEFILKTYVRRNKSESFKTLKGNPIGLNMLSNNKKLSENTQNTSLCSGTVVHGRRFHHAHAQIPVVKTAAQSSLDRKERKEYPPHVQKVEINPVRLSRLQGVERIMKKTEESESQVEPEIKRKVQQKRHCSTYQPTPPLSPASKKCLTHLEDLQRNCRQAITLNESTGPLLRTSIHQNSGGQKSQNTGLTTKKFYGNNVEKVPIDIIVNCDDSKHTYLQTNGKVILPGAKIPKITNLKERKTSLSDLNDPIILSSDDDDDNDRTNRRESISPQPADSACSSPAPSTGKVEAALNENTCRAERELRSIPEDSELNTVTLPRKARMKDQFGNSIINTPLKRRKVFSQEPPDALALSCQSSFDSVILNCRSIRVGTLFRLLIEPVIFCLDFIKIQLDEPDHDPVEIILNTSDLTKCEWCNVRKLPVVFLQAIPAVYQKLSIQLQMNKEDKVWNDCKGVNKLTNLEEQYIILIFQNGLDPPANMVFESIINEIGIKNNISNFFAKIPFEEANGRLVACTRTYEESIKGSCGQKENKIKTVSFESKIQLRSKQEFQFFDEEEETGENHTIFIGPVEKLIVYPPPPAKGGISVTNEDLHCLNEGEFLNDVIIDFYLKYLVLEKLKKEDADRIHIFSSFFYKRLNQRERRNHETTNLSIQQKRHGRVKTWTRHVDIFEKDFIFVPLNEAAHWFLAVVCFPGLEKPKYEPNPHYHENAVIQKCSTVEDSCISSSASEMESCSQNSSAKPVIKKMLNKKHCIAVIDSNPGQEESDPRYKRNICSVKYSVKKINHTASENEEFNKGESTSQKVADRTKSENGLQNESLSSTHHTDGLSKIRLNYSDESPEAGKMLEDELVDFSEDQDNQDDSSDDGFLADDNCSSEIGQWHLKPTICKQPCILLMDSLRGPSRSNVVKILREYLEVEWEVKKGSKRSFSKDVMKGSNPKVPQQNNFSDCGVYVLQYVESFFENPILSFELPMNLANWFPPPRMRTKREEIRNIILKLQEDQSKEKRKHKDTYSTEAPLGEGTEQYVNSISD
The class given is functional.

Experiment [15] deals with T5, Sentrin-specific protease 8 (Homo sapiens, UniProt Q96LD8).
T5 sequence (Q96LD8 whole entry): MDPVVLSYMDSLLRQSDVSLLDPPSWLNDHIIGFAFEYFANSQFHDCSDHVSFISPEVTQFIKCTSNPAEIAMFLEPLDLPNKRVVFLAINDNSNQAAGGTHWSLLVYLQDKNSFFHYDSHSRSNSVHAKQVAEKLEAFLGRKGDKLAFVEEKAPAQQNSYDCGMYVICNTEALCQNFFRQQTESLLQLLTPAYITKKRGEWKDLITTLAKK
The class given is functional.

For experiment [16], the target named is T6, Eukaryotic translation initiation factor 2-alpha kinase 3 (Homo sapiens, UniProt Q9NZJ5).
T6 sequence (Q9NZJ5 whole entry): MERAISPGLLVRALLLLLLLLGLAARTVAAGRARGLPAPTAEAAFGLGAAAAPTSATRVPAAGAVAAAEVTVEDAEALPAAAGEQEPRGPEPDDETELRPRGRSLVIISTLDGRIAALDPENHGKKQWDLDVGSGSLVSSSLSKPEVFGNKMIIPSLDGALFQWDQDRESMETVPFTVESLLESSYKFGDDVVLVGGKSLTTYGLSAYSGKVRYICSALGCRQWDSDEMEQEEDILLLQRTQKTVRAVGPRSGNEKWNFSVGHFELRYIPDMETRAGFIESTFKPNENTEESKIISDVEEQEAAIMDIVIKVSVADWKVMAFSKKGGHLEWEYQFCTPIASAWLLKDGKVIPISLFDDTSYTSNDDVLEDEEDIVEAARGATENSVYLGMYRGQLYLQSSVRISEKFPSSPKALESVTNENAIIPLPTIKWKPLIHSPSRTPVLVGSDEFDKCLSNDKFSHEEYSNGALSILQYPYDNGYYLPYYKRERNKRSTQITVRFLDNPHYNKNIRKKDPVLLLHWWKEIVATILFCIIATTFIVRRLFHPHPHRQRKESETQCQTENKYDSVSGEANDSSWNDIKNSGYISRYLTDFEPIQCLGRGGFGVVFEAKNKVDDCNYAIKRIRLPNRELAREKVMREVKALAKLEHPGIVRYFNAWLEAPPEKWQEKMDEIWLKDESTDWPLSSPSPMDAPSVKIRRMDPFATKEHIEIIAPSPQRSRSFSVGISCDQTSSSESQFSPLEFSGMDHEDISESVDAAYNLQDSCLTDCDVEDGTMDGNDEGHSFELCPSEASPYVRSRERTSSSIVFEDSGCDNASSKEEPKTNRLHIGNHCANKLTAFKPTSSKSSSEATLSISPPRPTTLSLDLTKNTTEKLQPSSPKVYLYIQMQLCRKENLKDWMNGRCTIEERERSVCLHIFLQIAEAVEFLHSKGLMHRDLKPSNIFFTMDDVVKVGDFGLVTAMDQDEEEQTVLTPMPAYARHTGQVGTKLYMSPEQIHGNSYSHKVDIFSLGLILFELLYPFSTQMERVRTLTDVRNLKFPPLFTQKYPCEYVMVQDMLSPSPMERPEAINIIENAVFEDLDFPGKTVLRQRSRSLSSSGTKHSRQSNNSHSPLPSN
The experiment in a line: Dose response cell-based high-throughput screening assay to measure PERK inhibition. [Related pubchem assays: 1416 ]. The class given is functional.

Experiment [17] has as its target T6, Eukaryotic translation initiation factor 2-alpha kinase 3. The experiment in a line: Counterscreen assay for PERK inhibitors: Dose response cell-based high throughput screening assay to measure inhibition of PERK at 6 hours. [Related pubchem assays: 1522, 1416 ]. It counts as functional.

Structures are written as SMILES. The source made the active and inactive calls.

T1 sequence (P41145 whole entry): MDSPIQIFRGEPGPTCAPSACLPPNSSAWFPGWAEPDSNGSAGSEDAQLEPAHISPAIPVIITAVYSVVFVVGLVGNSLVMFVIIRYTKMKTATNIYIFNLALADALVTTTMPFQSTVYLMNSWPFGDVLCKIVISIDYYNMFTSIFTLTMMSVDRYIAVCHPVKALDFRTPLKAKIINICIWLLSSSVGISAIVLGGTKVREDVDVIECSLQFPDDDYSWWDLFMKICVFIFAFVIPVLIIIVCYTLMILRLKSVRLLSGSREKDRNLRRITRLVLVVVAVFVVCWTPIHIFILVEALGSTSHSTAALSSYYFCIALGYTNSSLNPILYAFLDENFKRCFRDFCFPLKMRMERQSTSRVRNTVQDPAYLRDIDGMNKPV
Chain of Polyadenylate-binding protein 1 (P11940 whole entry): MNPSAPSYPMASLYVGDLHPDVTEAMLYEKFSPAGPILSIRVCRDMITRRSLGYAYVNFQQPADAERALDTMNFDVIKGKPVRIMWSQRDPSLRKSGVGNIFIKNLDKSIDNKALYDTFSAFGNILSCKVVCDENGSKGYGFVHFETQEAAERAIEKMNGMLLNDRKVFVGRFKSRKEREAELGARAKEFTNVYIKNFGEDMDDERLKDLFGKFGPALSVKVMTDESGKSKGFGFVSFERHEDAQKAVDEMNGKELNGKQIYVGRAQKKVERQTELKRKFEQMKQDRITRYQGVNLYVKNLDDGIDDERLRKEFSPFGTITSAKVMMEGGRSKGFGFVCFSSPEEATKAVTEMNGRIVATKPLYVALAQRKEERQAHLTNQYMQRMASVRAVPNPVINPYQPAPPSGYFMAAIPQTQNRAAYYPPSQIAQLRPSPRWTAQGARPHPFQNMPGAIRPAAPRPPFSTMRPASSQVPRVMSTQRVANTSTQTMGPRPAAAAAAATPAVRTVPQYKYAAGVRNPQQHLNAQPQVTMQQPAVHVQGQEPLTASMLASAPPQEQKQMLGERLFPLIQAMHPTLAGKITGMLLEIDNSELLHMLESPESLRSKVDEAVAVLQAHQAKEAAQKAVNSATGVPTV
Chain of Acyl-homoserine lactone acylase PvdQ (Q9I194 24-193 limits assumed): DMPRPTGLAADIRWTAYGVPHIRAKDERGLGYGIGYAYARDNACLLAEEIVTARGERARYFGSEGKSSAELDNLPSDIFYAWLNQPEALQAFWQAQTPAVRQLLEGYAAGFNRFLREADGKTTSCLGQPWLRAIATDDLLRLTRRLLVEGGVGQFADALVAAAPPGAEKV
Chain of Acyl-homoserine lactone acylase PvdQ (Q9I194 217-762 limits assumed): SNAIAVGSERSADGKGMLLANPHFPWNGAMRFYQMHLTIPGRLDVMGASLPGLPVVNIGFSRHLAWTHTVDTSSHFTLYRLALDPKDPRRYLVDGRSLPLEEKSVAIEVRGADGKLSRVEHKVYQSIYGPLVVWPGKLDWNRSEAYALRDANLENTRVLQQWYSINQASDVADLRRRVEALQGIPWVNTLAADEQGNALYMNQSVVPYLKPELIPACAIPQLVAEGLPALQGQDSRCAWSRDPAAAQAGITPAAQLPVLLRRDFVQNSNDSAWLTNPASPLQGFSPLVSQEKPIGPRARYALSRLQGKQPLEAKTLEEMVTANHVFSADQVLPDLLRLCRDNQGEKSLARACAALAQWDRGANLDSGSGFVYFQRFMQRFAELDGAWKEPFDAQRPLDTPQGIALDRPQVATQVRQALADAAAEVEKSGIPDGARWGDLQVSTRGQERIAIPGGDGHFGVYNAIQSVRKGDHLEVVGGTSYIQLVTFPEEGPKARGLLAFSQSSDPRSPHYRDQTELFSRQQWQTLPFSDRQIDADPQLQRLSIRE

Take `O=C(NC1CCCC1)c1cccc(Cl)c1`: the half-maximal activity concentration (AC50) in experiment [1] is 3.13 µM (active).

With `Cc1csc2nc(CNS(=O)(=O)N(C)C)cn12`, the IC50 in experiment [2] was > 100 µM (inactive).

For the compound `COc1ccc(Oc2c(Cl)cnn(-c3ccc(C)cc3)c2=O)cc1OC`, the concentration for half-maximal inhibition (IC50) in [3] was 8.2 µM (active).

Consider `O=C(OCc1nc2ccccc2s1)c1ccco1`, for which the AC50 in [1] was 30.3 µM (active).

Turning to `O=S(=O)(c1ccccc1)c1nc(-c2ccco2)oc1N1CCCCC1`, the AC50 in experiment [4] was 7.38 µM (active).

Consider `O=C(NCCN1Cc2ccccc2C1)c1ccc(CNS(=O)(=O)c2ccc(Br)cc2)cc1`, for which the IC50 in [5] is > 32 µM (inactive); in experiment [6] it was > 32 µM (inactive); in experiment [7], > 20 µM (inactive); in [8] it was > 32 µM (inactive).

Consider `COc1ccc(Oc2c(Cl)cnn(-c3cccc(C(C)C)c3)c2=O)cc1`, for which the IC50 in [3] was 1.7 µM (active).

`O=C(Nc1ccccc1Cl)C1CCN(C(=O)c2cccs2)CC1`: the IC50 in [9] and in experiment [10] was > 100 µM (inactive) throughout.

For `CS(=O)(=O)c1ccccc1C(=O)Nc1cccc2ncccc12`, the 50% inhibitory concentration (IC50) was 16.1 µM (active) in experiment [9] and 20.2 µM (active) in experiment [10].

Take `Cc1csc(N/N=C/c2ccc(O)c([N+](=O)[O-])c2)n1`: the IC50 in experiment [2] is > 100 µM (inactive); in [11] it was 22.1 µM (active); in experiment [12], 3.15 µM (active); in experiment [13], 4.19 µM (active); in [14], 9.25 µM (active); in experiment [15] it was 8.45 µM (active).

With `CN1CCN(CCCNC(=O)Cn2c(=O)c3cccn3c3cccnc32)CC1`, the IC50 in [5] is > 32 µM (inactive); in experiment [6] it was > 32 µM (inactive); in experiment [7], > 20 µM (inactive); in [8], > 32 µM (inactive).

With `Cc1cnc(O)c([N+](=O)[O-])c1`, the concentration for a half-maximal effect (EC50) in [16] and in experiment [17] was > 55.7 µM (not active) in each case.

For orientation: AC50 means the concentration at which the activity in the assay is half-maximal. As usually defined, the IC50 is the midpoint of a concentration-inhibition curve. What is called EC50 is the concentration that produces a half-maximal response. A higher EC50 goes with a need for much substance.
